# Laboratory results taken from patent publication US20260216109A1, “TREATMENT OF SKIN DISORDERS WITH SHORT CHAIN FATTY ACIDS” (Temple University-Of The Commonwealth System of Higher …, priority 2023, published 2026).
# Columns and labels:
# [1] = test system: IL-17A; experiment: Multiplex (MSD V-PLEX) cytokine release, InflammaSkin: IL-17A; format: cell-based, human; conditions: Day 7 supernatant, 0.05% Betamethasone topical, vs untreated InflammaSkin
# Description: A total of 16 biopsies of 15 mm diameter were produced from a single donor. Two NativeSkin® models with 12/15 mm silicon rings were produced from the biopsies according to standard procedures in place, and cultured under cell culture conditions (37° C., 5% CO2, max. humidity) for 7 days with 2 mL of standard NativeSkin® medium renewed every day. Fourteen PSO-InflammaSkin® models with 12/15 mm silicon rings were produced by inducing in situ activation and Th17/Th1 polarization of skin resident T cells with a proprietary cocktail, and cultured under cell culture conditions (37° C., 5% CO2, max. humidity) for 7 days with 2 mL of PSO-InflammaSkin® culture medium renewed every day.
# From Day 1 to Day 6, models were systemically treated with 1 μM Otezla or Short Chain Fatty Acids (SCFAs), or topically treated with positive control 0.05% Betamethasone
# In these experiments, the SCFAs administered were 45 μg/mL of Ca-propionate and 1 mM mixture of salts (Ca-butyrate and Mg-butyrate).
# At Day 7, supernatants were collected and stored at −80° C. and skin models of all conditions were carefully unmolded. […]
# Human pro-inflammatory cytokines released in the supernatant were quantified using the V-PLEX Human IL-17A Kit (MesoScale Discovery, reference: K151RFD-1) and V-PLEX Human TNFα Kit (MesoScale Discovery, reference: K151QWD-1). […]
# Human pro-inflammatory cytokines released in the supernatant were quantified using the V-PLEX Human IL-17A Kit (MesoScale Discovery, reference: K151RFD-1) and V-PLEX Human custom Pro-inflammatory. […]
# Samples were diluted four times for plate 2 and two times for plate 1. Samples and standards were assessed in duplicate. Plates were read on MesoScale Discovery Quickpleax SQ 120 plate reader and values expressed in pg/mL.
# A statistical analysis was performed. […] First, the distribution's normality of the two compared group was assessed. […] If the two distributions were normal, the homogeneity of variances was assessed using a Fisher test on the variances. […]
# [2] = test system: TNF-α; experiment: ELISA analysis of TNF-α, InflammaSkin; format: cell-based, human; conditions: Example 2; Otezla-treated InflammaSkin; FIG. 20
# [3] = test system: imiquimod (IMQ)-induced psoriasis model mice; experiment: Back skin scaling, IMQ-induced psoriasis model in mice; format: in vivo, mouse; conditions: for skin scaling: Example 12
# Description: Topical application of IMQ, a TLR7/8 ligand and potent immune activator induced and exacerbated psoriasis in mice. The mouse IMQ-induced psoriasis (IMQ Ps) model was initiated by a repeated topical application of Aldara© cream (containing 5% IMQ) over 6 consecutive days. Female Balb/c mice (9 weeks of age at reception, ordered with 20 g, Charles River, Sulzfeld, Germany; n=10 mice/group, exception healthy controls n=4) received daily a topical application of 62.5 mg of commercially available IMQ cream (5% Aldara©) on the beforehand (day −1) shaved (~2 cm×3 cm), depilated (Pilka© cream) back skin, and 7 mg on the outer right ear skin for 6 consecutive days, translating in a daily dose of approximately 3.5 mg IMQ. Healthy control mice were included in the study and were treated with vehicle cream (Vaseline; Bombastus-Werke AG) only instead of IMQ. Additionally, an IMQ disease control group was also included.
# Disease Severity Score was evaluated on a daily base starting with the induction of psoriasis by IMQ application (day 0) until the end (day 6) of the study. The psoriasis severity on the back skin of the mice was evaluated by using a modified scoring system developed by van der Fits et al., based on the clinical PASI (psoriasis area and severity index) and takes skin erythema, scaling and skin thickening into account. Scoring was performed by the same lab technician throughout the experiment. Each parameter was scored independently on a scale from 0 to 3.
# Before starting treatment on the day of disease induction (day 0), mice were randomized based on body weight to the respective group. To evaluate the anti-inflammatory efficacy of the two compounds in mouse IMQ psoriasis, mice were treated twice daily ([…] in sterile water; m/m/v) alone, with fixed dose of SCFA (in ddH2O) alone, […] dose of SCFA. Healthy and IMQ disease controls were orally treated in parallel with vehicle only. All treatments started with first application of IMQ on day 0.
# Skin scaling, one of the disease severity score parameters, was evaluated in IMQ-treated mice (FIGS. 57-59).
smiles,measurement,setting,value
"CCOc1cc([C@@H](CS(C)(=O)=O)N2C(=O)c3cccc(NC(C)=O)c3C2=O)ccc1OC [Otezla, Apremilast]",IL-17A levels decreased by,"[1]; Example 1, 1 μM Otezla or SCFA (45 μg/mL Ca-propionate + 1 mM Ca-/Mg-butyrate) systemic",about 95%
same,IL-17A secretion,"[1]; Example 2, 1 μM Otezla or SCFA systemic",significantly reduced
same,TNFα level (by ELISA),[2],~13 pg/mL
same,back skin scaling (desquamation) over time,"[3]; Example 9, Apremilast 25 mg/kg BID, SCFA fixed dose (120 mg/kg/day Ca-propionate + 1,100 mg/kg/day Ca-/Mg-butyrate), alone or combined, oral",able to inhibit the skin scaling from day 3 to day 5
same,cumulative evaluation of skin scaling over the entire course of the study,"[3]; Example 9, Apremilast 25 mg/kg BID, SCFA fixed dose (120 + 1,100 mg/kg/day), alone or combined, p<0.01",significant and similar beneficial effects
same,skin scaling,"[3]; day 5 and day 6, Apremilast 25 mg/kg BID alone, or combined with fixed dose SCFA (60 + 1,100 mg/kg/day)",significantly inhibited skin scaling on day 5 (p<0.05) and day 6 (p<0.01)
same,skin scaling,"[3]; day 6, fixed dose SCFA alone, Apremilast 12 mg/kg BID alone, or both combined",did not reach significance at day 6
